From the supplement of paper PMC4862054
“And” between values parts separate entries of the source, which are not always exact repeats. Equal values may be shown once.

Key:
Assay in all cases: drug sensitivity score (DSS), CellTiter-Blue viability (DSS (AUC-based score)); higher = stronger viability inhibition; extreme values may be limits of the assay
Details in all cases: incubation time: 72 h
[1] = tested on: HCC1143
Summary of the method: (§1)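 Into 384-well plates carrying compound in a 5- or 9-concentration series went 20 µl of breast cancer cell suspension, followed by 72 h of incubation. Adding 2.5 µl CellTiter-Blue per well and incubating 2 h at 37 °C preceded fluorescence measurement at 560/590 nm. After normalisation of each plate to 0.1 % DMSO and a positive kill control, dose-response curves were fitted and the area beneath them taken as the drug sensitivity score.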

[2] = tested on: DU-4475
Summary of the method: as §1

[3] = tested on: CAL-51
Summary of the method: as §1

[4] = tested on: Hs578T
Summary of the method: as §1

In the case of `Cc1c(N)nc([C@H](CC(N)=O)NC[C@H](N)C(N)=O)nc1C(=O)N[C@H](C(=O)N[C@H](C)[C@@H](O)[C@H](C)C(=O)N[C@H](C(=O)NCCc1nc(-c2nc(C(=O)NCCC[S+](C)C)cs2)cs1)[C@@H](C)O)[C@@H](OC1OC(CO)C(O)C(O)C1OC1OC(CO)C(O)C(OC(N)=O)C1O)c1cnc[nH]1` (stereo partly drawn) [Bleomycin], the drug sensitivity score [1] is reported as 9.95, the drug sensitivity score [2] is reported as 0 and the drug sensitivity score [3] is reported as 0.892. For the same molecule, the drug sensitivity score [4] was 11.3.

`Cc1cc2c(F)c(Oc3ncnn4cc(OC[C@@H](C)O)c(C)c34)ccc2[nH]1` [Brivanib] was tested, and the drug sensitivity score [1] was 0, the drug sensitivity score [2] was 0 and the drug sensitivity score [3] was 0. For the same molecule, the drug sensitivity score [4] was 0.

Molecule `CCCCCOC(=O)Nc1nc(=O)n([C@@H]2O[C@H](C)[C@@H](O)[C@H]2O)cc1F` [Capecitabine] has a drug sensitivity score [1] of 0, a drug sensitivity score [2] of 0 and a drug sensitivity score [3] of 0. For the same molecule, the drug sensitivity score [4] was 0.

For `CC(C)C[C@H](NC(=O)[C@H](CCc1ccccc1)NC(=O)CN1CCOCC1)C(=O)N[C@@H](Cc1ccccc1)C(=O)N[C@@H](CC(C)C)C(=O)[C@@]1(C)CO1` [Carfilzomib], the drug sensitivity score [1] was 20.4, the drug sensitivity score [2] was 22.8 and the drug sensitivity score [3] was 19.6. For the same molecule, the drug sensitivity score [4] was 27.6.

`Nc1nc(Cl)nc2c1ncn2[C@@H]1O[C@H](CO)[C@@H](O)[C@@H]1F` [Clofarabine] gave a drug sensitivity score [1] of 9.25, a drug sensitivity score [2] of 13.3 and a drug sensitivity score [3] of 11.1. For the same molecule, the drug sensitivity score [4] was 7.51.

`CCN(CC)CCOc1ccc(C(=C(Cl)c2ccccc2)c2ccccc2)cc1` [Clomifene] was tested, and the drug sensitivity score [1] was 0, the drug sensitivity score [2] was 1.29 and the drug sensitivity score [3] was 0. It also gave a drug sensitivity score [4] of 0.

For `C[C@@H]1C[C@H]2[C@@H]3CCC4=CC(=O)C=C[C@]4(C)[C@@]3(F)[C@@H](O)C[C@]2(C)[C@@]1(O)C(=O)CO` [Dexamethasone], the drug sensitivity score [1] was 0, the drug sensitivity score [2] was 0 and the drug sensitivity score [3] was 0. It also gave a drug sensitivity score [4] of 0.

In the case of `CC(C)C(=O)Nc1ccc([N+](=O)[O-])c(C(F)(F)F)c1` [Flutamide], the drug sensitivity score [1] is reported as 0, the drug sensitivity score [2] is reported as 0 and the drug sensitivity score [3] is reported as 0. It also gave a drug sensitivity score [4] of 0.

For `COc1cc2c(Oc3ccc(NC(=O)C4(C(=O)Nc5ccc(F)cc5)CC4)cc3F)ccnc2cc1OCCCN1CCOCC1` [Foretinib], the drug sensitivity score [1] was 0, the drug sensitivity score [2] was 1.75 and the drug sensitivity score [3] was 4.07. For the same molecule, the drug sensitivity score [4] was 0.649.

With `NC(=O)NO` [Hydroxyurea] the drug sensitivity score [1] was 0, the drug sensitivity score [2] was 0 and the drug sensitivity score [3] was 0. It also gave a drug sensitivity score [4] of 0.

`O=NN(CCCl)C(=O)NC1CCCCC1` [Lomustine] was tested, and the drug sensitivity score [1] was 0, the drug sensitivity score [2] was 0 and the drug sensitivity score [3] was 0. For the same molecule, the drug sensitivity score [4] was 0.

With `O=C(O)CC[C@H]1CC[C@@](c2cc(F)ccc2F)(S(=O)(=O)c2ccc(Cl)cc2)CC1` [MK-0752] the drug sensitivity score [1] was 0, the drug sensitivity score [2] was 0 and the drug sensitivity score [3] was 0. It also gave a drug sensitivity score [4] of 0.

`NC1(c2ccc(-c3nc4ccn5c(=O)[nH]nc5c4cc3-c3ccccc3)cc2)CCC1` [MK-2206] was tested, and the drug sensitivity score [1] was 0, the drug sensitivity score [2] was 0 and the drug sensitivity score [3] was 1.04. The drug sensitivity score [4] was 0.

`NC(=O)c1cccc2cn(-c3ccc([C@@H]4CCCNC4)cc3)nc12` [MK-4827] gave a drug sensitivity score [1] of 3.49, a drug sensitivity score [2] of 6.73 and a drug sensitivity score [3] of 5.3. For the same molecule, the drug sensitivity score [4] was 0.

`N[C@@H](Cc1ccc(N(CCCl)CCCl)cc1)C(=O)O` [Melphalan] showed a drug sensitivity score [1] of 0, a drug sensitivity score [2] of 0 and a drug sensitivity score [3] of 0. The drug sensitivity score [4] was 3.68.

`Cc1c(C(=O)Nc2ccc(N3C[C@@H](C)O[C@@H](C)C3)nc2)cccc1-c1ccc(OC(F)(F)F)cc1` [NVP-LDE225] gave a drug sensitivity score [1] of 0, a drug sensitivity score [2] of 0 and a drug sensitivity score [3] of 0. The drug sensitivity score [4] was 0.

`O=C(c1cc(Cc2n[nH]c(=O)c3ccccc23)ccc1F)N1CCN(C(=O)C2CC2)CC1` [Olaparib] gave a drug sensitivity score [1] of 0, a drug sensitivity score [2] of 3.83 and a drug sensitivity score [3] of 3.33. The drug sensitivity score [4] was 0.

For `CO[C@H](C(=O)[C@@H](O)[C@@H](C)O)[C@@H]1Cc2cc3cc(O[C@H]4C[C@@H](O[C@@H]5C[C@@H](O)[C@H](O)[C@@H](C)O5)[C@H](O)[C@@H](C)O4)c(C)c(O)c3c(O)c2C(=O)[C@H]1O[C@H]1C[C@@H](O[C@@H]2C[C@@H](O)[C@@H](O[C@@H]3C[C@](C)(O)[C@H](O)[C@@H](C)O3)[C@@H](C)O2)[C@H](O)[C@@H](C)O1` [Plicamycin], the drug sensitivity score [1] was 22.2 and 25.5, the drug sensitivity score [2] was 28 and 28.2 and the drug sensitivity score [3] was 22.1 and 22.3. The drug sensitivity score [4] was 28 and 31.7.

Work on `C[C@]12C=CC(=O)C=C1CC[C@@H]1[C@@H]2C(=O)C[C@@]2(C)[C@H]1CC[C@]2(O)C(=O)CO` [Prednisone] yielded a drug sensitivity score [1] of 0, a drug sensitivity score [2] of 0 and a drug sensitivity score [3] of 0. It also gave a drug sensitivity score [4] of 0.

`CO[C@H]1C[C@@H]2CC[C@@H](C)[C@@](O)(O2)C(=O)C(=O)N2CCCC[C@H]2C(=O)O[C@H]([C@H](C)C[C@@H]2CC[C@@H](O)[C@H](OC)C2)CC(=O)[C@H](C)/C=C(\C)[C@@H](O)[C@@H](OC)C(=O)[C@H](C)C[C@H](C)/C=C/C=C/C=C/1C` [Sirolimus] gave a drug sensitivity score [1] of 10.1, a drug sensitivity score [2] of 15 and a drug sensitivity score [3] of 23.8. It also gave a drug sensitivity score [4] of 14.4.

In the case of `CN1CCN(c2nc(C3=C(c4c[nH]c5ccccc45)C(=O)NC3=O)c3ccccc3n2)CC1` [Sotrastaurin], the drug sensitivity score [1] is reported as 0, the drug sensitivity score [2] is reported as 0 and the drug sensitivity score [3] is reported as 0. For the same molecule, the drug sensitivity score [4] was 0.

For `CC/C(=C(\c1ccccc1)c1ccc(OCCN(C)C)cc1)c1ccccc1` [Tamoxifen], the drug sensitivity score [1] was 0, the drug sensitivity score [2] was 0 and the drug sensitivity score [3] was 0. It also gave a drug sensitivity score [4] of 0.
